According to PubChem BioAssay AID1963831 (Molecular Pharmacology Branch, DTP, NCI, 2024):

System: 889142-216-R-J1-PDC complex spheroid viability
Assay: Anticancer human tumor 889142-216-R-J1-PDC patient-derived bladder carcinoma cell line growth inhibition [POLQ]
Conditions: for IC50: curve of first compound; for viability, T/C: stronger effect = lower value; active means viability on the fitted dose curve at most 10% of control; inactive means the rest
Summary of the method: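 Complex spheroid viability model combining PDC tumour cells with endothelial (HUVEC) and MSC stromal cells. Novobiocin, ART-558 or RP6685 were tested singly and in combination with standard and investigational anticancer drugs. Each was titrated in half-log steps from near clinical Cmax, or from 10 microM where Cmax was unknown.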

[1] = second compound 0.0316 µM, first compound 0.0316 µM
[2] = second compound 0.0316 µM, first compound 0.1 µM
[3] = second compound 0.0316 µM, first compound 0.316 µM
[4] = second compound 0.0316 µM, first compound 1 µM
[5] = second compound 0.1 µM, first compound 0.0316 µM
[6] = second compound 0.1 µM, first compound 0.1 µM
[7] = second compound 0.1 µM, first compound 0.316 µM
[8] = second compound 0.1 µM, first compound 1 µM
[9] = second compound 0.316 µM, first compound 0.0316 µM
[10] = second compound 0.316 µM, first compound 0.1 µM
[11] = second compound 0.316 µM, first compound 0.316 µM
[12] = second compound 0.316 µM, first compound 1 µM
[13] = second compound 1 µM, first compound 0.0316 µM
[14] = second compound 1 µM, first compound 0.1 µM
[15] = second compound 1 µM, first compound 0.316 µM
[16] = second compound 1 µM, first compound 1 µM
[17] = second compound 3.16 µM, first compound 0.0316 µM
[18] = second compound 3.16 µM, first compound 0.1 µM
[19] = second compound 3.16 µM, first compound 0.316 µM
[20] = second compound 3.16 µM, first compound 1 µM
[21] = second compound 10 µM, first compound 0.0316 µM
[22] = second compound 10 µM, first compound 0.1 µM
[23] = second compound 10 µM, first compound 0.316 µM
[24] = second compound 10 µM, first compound 1 µM
[25] = second compound 0.0316 µM, first compound 3.16 µM
[26] = second compound 0.0316 µM, first compound 10 µM
[27] = second compound 0.1 µM, first compound 3.16 µM
[28] = second compound 0.1 µM, first compound 10 µM
[29] = second compound 0.316 µM, first compound 3.16 µM
[30] = second compound 0.316 µM, first compound 10 µM
[31] = second compound 1 µM, first compound 3.16 µM
[32] = second compound 1 µM, first compound 10 µM
[33] = second compound 3.16 µM, first compound 3.16 µM
[34] = second compound 3.16 µM, first compound 10 µM
[35] = second compound 10 µM, first compound 3.16 µM
[36] = second compound 10 µM, first compound 10 µM
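Further: spheroids exposed to compounds for seven days.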
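Wherever viability, T/C is given: 100% = DMSO vehicle control viability.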

C=CCn1c(=O)c2cnc(Nc3ccc(N4CCN(C)CC4)cc3)nc2n1-c1cccc(C(C)(C)O)n1 + Nc1ccc(C#CCN(C(=O)Cc2ncc(C(F)(F)F)cc2C(F)(F)F)c2ccc(F)cc2)nn1
> 1000 nM: IC50 (second compound 0.0316 µM) | IC50 (second compound 0.1 µM) | IC50 (second compound 0.316 µM) | IC50 (second compound 1 µM) | IC50 (second compound 3.16 µM) | IC50 (second compound 10 µM)
inactive: viability, T/C (second compound 0.0316 µM, first compound 0.00316 µM) 113% | viability, T/C (second compound 0.0316 µM, first compound 0.01 µM) 118% | viability, T/C [1] 88.4% | viability, T/C [2] 87.2% | viability, T/C [3] 74.8% | viability, T/C [4] 58.2% | viability, T/C (second compound 0.1 µM, first compound 0.00316 µM) 114% | viability, T/C (second compound 0.1 µM, first compound 0.01 µM) 119% | viability, T/C [5] 108% | viability, T/C [6] 85.1% | viability, T/C [7] 64.5% | viability, T/C [8] 56.2% | viability, T/C (second compound 0.316 µM, first compound 0.00316 µM) 106% | viability, T/C (second compound 0.316 µM, first compound 0.01 µM) 79.1% | viability, T/C [9] 78% | viability, T/C [10] 80.7% | viability, T/C [11] 72.5% | viability, T/C [12] 62.4% | viability, T/C (second compound 1 µM, first compound 0.00316 µM) 101% | viability, T/C (second compound 1 µM, first compound 0.01 µM) 83.8% | viability, T/C [13] 99.4% | viability, T/C [14] 78.4% | viability, T/C [15] 81.1% | viability, T/C [16] 58.9% | viability, T/C (second compound 3.16 µM, first compound 0.00316 µM) 98.9% | viability, T/C (second compound 3.16 µM, first compound 0.01 µM) 87.4% | viability, T/C [17] 98.1% | viability, T/C [18] 90.3% | viability, T/C [19] 84.5% | viability, T/C [20] 59.1% | viability, T/C (second compound 10 µM, first compound 0.00316 µM) 97.4% | viability, T/C (second compound 10 µM, first compound 0.01 µM) 96% | viability, T/C [21] 107% | viability, T/C [22] 102% | viability, T/C [23] 66.4% | viability, T/C [24] 54.6%

CC1COCCN1c1cc(-c2ccnn2C)c2ccnc(-c3ccn[nH]3)c2n1 (stereo not drawn) + COC1C(OC(N)=O)C(O)C(Oc2ccc3c(O)c(NC(=O)c4ccc(O)c(CC=C(C)C)c4)c(=O)oc3c2C)OC1(C)C
293 nM: IC50 (second compound 1 µM)
337 nM: IC50 (second compound 3.16 µM)
inactive: viability, T/C [1] 97.8% | viability, T/C [2] 56.2% | viability, T/C [3] 46.4% | viability, T/C [4] 45% | viability, T/C [25] 31.5% | viability, T/C [26] 30% | viability, T/C [5] 79% | viability, T/C [6] 53.3% | viability, T/C [7] 40.4% | viability, T/C [8] 41.7% | viability, T/C [27] 34.1% | viability, T/C [28] 25.9% | viability, T/C [9] 90.5% | viability, T/C [10] 55.5% | viability, T/C [11] 39.6% | viability, T/C [12] 45.2% | viability, T/C [29] 38.2% | viability, T/C [30] 28.6% | viability, T/C [13] 77.2% | viability, T/C [14] 58.6% | viability, T/C [15] 48% | viability, T/C [16] 40.9% | viability, T/C [31] 36.2% | viability, T/C [32] 25.9% | viability, T/C [17] 71.5% | viability, T/C [18] 59.5% | viability, T/C [19] 48.8% | viability, T/C [20] 42.8% | viability, T/C [33] 35.3% | viability, T/C [34] 26.4% | viability, T/C [21] 79% | viability, T/C [22] 55.8% | viability, T/C [23] 49.7% | viability, T/C [24] 43.6% | viability, T/C [35] 34.2% | viability, T/C [36] 27.5%
169 nM: IC50 (second compound 0.316 µM)
162 nM: IC50 (second compound 0.1 µM)
213 nM: IC50 (second compound 0.0316 µM)
287 nM: IC50 (second compound 10 µM)

COc1cc(C2c3cc4c(cc3C(OC3OC5COC(C)OC5C(O)C3O)C3COC(=O)C23)OCO4)cc(OC)c1O (stereo not drawn) + Nc1ccc(C#CCN(C(=O)Cc2ncc(C(F)(F)F)cc2C(F)(F)F)c2ccc(F)cc2)nn1
8970 nM: IC50 (second compound 1 µM)
inactive: viability, T/C [1] 90.8% | viability, T/C [2] 92.8% | viability, T/C [3] 86.8% | viability, T/C [4] 60.5% | viability, T/C [25] 96.8% | viability, T/C [26] 62.9% | viability, T/C [5] 99.5% | viability, T/C [6] 101% | viability, T/C [7] 69.3% | viability, T/C [8] 60.2% | viability, T/C [27] 84.5% | viability, T/C [28] 61.5% | viability, T/C [9] 116% | viability, T/C [10] 86.2% | viability, T/C [11] 78.8% | viability, T/C [12] 69% | viability, T/C [29] 79.2% | viability, T/C [30] 54.4% | viability, T/C [13] 121% | viability, T/C [14] 95.6% | viability, T/C [15] 80.5% | viability, T/C [16] 58.2% | viability, T/C [31] 66% | viability, T/C [32] 56.9% | viability, T/C [17] 104% | viability, T/C [18] 78.2% | viability, T/C [19] 72.2% | viability, T/C [20] 59.8% | viability, T/C [33] 68.1% | viability, T/C [34] 61% | viability, T/C [21] 86.7% | viability, T/C [22] 104% | viability, T/C [23] 79.9% | viability, T/C [24] 74.3% | viability, T/C [35] 76.4% | viability, T/C [36] 62.9%
> 10000 nM: IC50 (second compound 0.0316 µM) | IC50 (second compound 0.1 µM) | IC50 (second compound 0.316 µM) | IC50 (second compound 3.16 µM) | IC50 (second compound 10 µM)

CC1COCCN1c1cc(C2(S(C)(=N)=O)CC2)nc(-c2ccnc3[nH]ccc23)n1 (stereo not drawn) + COC1C(OC(N)=O)C(O)C(Oc2ccc3c(O)c(NC(=O)c4ccc(O)c(CC=C(C)C)c4)c(=O)oc3c2C)OC1(C)C
977 nM: IC50 (second compound 1 µM)
1820 nM: IC50 (second compound 10 µM)
1960 nM: IC50 (second compound 3.16 µM)
996 nM: IC50 (second compound 0.316 µM)
inactive: viability, T/C [1] 99% | viability, T/C [2] 93.9% | viability, T/C [3] 71.5% | viability, T/C [4] 59.8% | viability, T/C [25] 42.9% | viability, T/C [26] 40.4% | viability, T/C [5] 90.8% | viability, T/C [6] 102% | viability, T/C [7] 82.9% | viability, T/C [8] 56.6% | viability, T/C [27] 46.1% | viability, T/C [28] 39.8% | viability, T/C [9] 84.3% | viability, T/C [10] 92.8% | viability, T/C [11] 80.9% | viability, T/C [12] 49.7% | viability, T/C [29] 49.6% | viability, T/C [30] 38.9% | viability, T/C [13] 83.4% | viability, T/C [14] 131% | viability, T/C [15] 73.6% | viability, T/C [16] 60.5% | viability, T/C [31] 47.6% | viability, T/C [32] 40.4% | viability, T/C [17] 100% | viability, T/C [18] 98% | viability, T/C [19] 85.6% | viability, T/C [20] 55.4% | viability, T/C [33] 46.2% | viability, T/C [34] 45.2% | viability, T/C [21] 103% | viability, T/C [22] 84.2% | viability, T/C [23] 87.3% | viability, T/C [24] 53% | viability, T/C [35] 49.5% | viability, T/C [36] 43.9%
1930 nM: IC50 (second compound 0.0316 µM)
1800 nM: IC50 (second compound 0.1 µM)
